Measured values from US20110223633A1, “METHODS AND REAGENTS FOR ENRICHMENT AND CHARACTERIZATION OF PHOSPHORYLATED BIOMOLECULES” (priority 2008, published 2011).
“And” between values parts separate entries of the source, which are not always exact repeats. Identical values can stand only once.

Test system: lipid droplet (LD) proteins from mouse white adipose tissue (WAT)
Experiment: Stoichiometry of LD protein phosphorylation by isotope tagging and enzymatic (BIAP) dephosphorylation after CL316,243 injection
Assay type: in vivo
Description: Purification of lipid droplets (LD) from mouse white adipose tissue (WAT). All animals were maintained in the Canadian Council on Animal Care (CCAC)-accredited animal facilities of the CHU Ste-Justine Research Center. Two month-old (˜25-29 g BW) male C57BU6J mice, were purchased from Charles River Canada (St. Constant, PQ, Canada), and housed for an additional month at 25° C. in an animal facility with 12:12 h light-dark cycles. During this time, animals were fed ad libitum with 5K chow (˜18% protein, ˜6% fat, ˜5% fiber). […] The homogenate was filtered through a nylon mesh and centrifuged at 17 g for 2 min. Pellet and infranatant were removed and the floating lipid droplets resuspended in 2 ml of the homogenization buffer and centrifuged as above. After the second wash with 50 mM TRIS, pH 7.4, containing 1 M NaCl (Fisher), the LD were snap-frozen and kept at −80° C. until further use.
Extraction of LD proteins and preparation of peptide digests. Purified LD preparations (average wet weight 250 mg) were resuspended in 1 ml of ice-cold acetone, sonicated for 25 sec at 80 W, incubated for 16 h at −20° C. and centrifuged for 10 min at 13,000 g. The supernatants were discharged and pellets were re-extracted twice with ice-cold acetone (1 h each time). After removal of residual acetone under a stream of nitrogen, the protein pellets were re-suspended in 300 μl of a 0.1% sodium 3-[(2-methyl-2-undecyl-1,3-dioxolan-4-yl)methoxyl]-1-propanesulfonate (RapiGest™ SF) in 50 mM NH4HCO3, pH 7.8, containing 5 mM DTT, then sonicated for 10-25 sec and incubated in a boiling bath for 5 min. After 5-min centrifugation at 13,000 g, supernatants were treated for 30 min with IAA in the dark (final concentration 15 mM), and digested overnight with trypsin (Promega, sequencing grade; trypsin to protein ratio 1:50). After digestion, samples were supplemented with TFA (final concentration 0.5%), incubated at 37° C. for 1 h and centrifuged at 13,000 g for 10-min to remove RapiGest™ SF.
Labeling and dephosphorylation of LD peptides. Peptide digests (˜200 μg of protein) were de-salted by the reverse phase chromatography on macro-C18 spin columns (Harvard apparatus) eluted with 70% acetonitrile in water, dried in a SpeedVac™ Concentrator (Savant) and labeled with heavy or light SIMPL (Stable Isotope-containing Multiplex Peptide Labels) isotope tags as described (Fedjaev et al., 2007, supra). After adjusting pH to 8.0 with 500 mM NH4HCO3, samples were supplemented with 3 units of bovine intestinal alkaline phosphatase (BIAP, Sigma, P-5521) and incubated for 3 h at 37° C. BIAP reaction was terminated by addition of concentrated TCA (Sigma) to a final concentration 10%, followed by 1 h incubation on ice and 30-min centrifugation at 13,000 g. Samples containing dephosphorylated peptides were then mixed 1:1 with untreated samples, extracted twice with ethylacetate (Sigma) to remove the excess of unreacted SIMPL labels and analyzed by 2D-LC-MS/MS as described below.
HPLC of peptides on weak anion exchange (WAX) column. Offline WAX HPLC was performed on an Agilent™ 1100 Series liquid chromatography system. Peptides were loaded on C18 (Jupiter™ 4 μm Proteo 90 Å 50×1 mm, Phenomenex) column in 10 mM ammonium acetate containing 10% ACN, and eluted with step gradient of 70% of ACN directly on the WAX (PolySulfoethyl A […] 5 μm 300 Å) column. The column was washed with 10 mM ammonium acetate buffer containing 10% ACN for 10 min and peptides were eluted with 0-100% gradient of 2 M ammonium formate, 10% ACN. […] fractions of 50 μl were collected. Collected fractions were immediately acidified with FA (final concentration 0.2%) and analyzed by LC-MS/MS.
μLC-MS/MS analysis of LD peptides. Peptides were analyzed using a LC-MS/MS instrument consisting of an Agilent™ 1100 Series nanoflow liquid chromatography system and LC/MSD-Trap-SL™ ion trap mass spectrometer (Agilent Technologies, Santa Clara, Calif., USA). […]

Structure (SMILES): C[C@H](Cc1ccc2c(c1)OC(C(=O)[O-])(C(=O)[O-])O2)NC[C@H](O)c1cccc(Cl)c1.[Na+].[Na+] [CL316,243, disodium 5-[(2R)-2-[[(2R)-2-(3-Chlorophenyl)-2-hydroxyethyl]amino]propyl]-1,3-benzodioxole-2,2-dicarboxylate]
- Mean isotope ratio Treated, peptide KLLVSSEDYGR (Alpha II spectrin, LD from WAT, 1 mg/kg i.p., 15 min): 3.47
- Ratio Treated, peptide SSEEIESAFR (Alpha-II spectrin, z 2, m/z 668.3, LD from WAT of treated mice): 0.64(2)
- Ratio Treated, peptide DLTNVQNLQK (Alpha-II spectrin, z 2, m/z 674.3, LD from WAT of treated mice): 0.98(1)
- Ratio Treated, peptide SQLLGSAHEVQR (Alpha-II spectrin, z 2, m/z 750.4, LD from WAT of treated mice): 1.05(4)
- Ratio Treated, peptide DTEQVDNWMSK (Alpha-II spectrin, z 2, m/z 764.7, LD from WAT of treated mice): 1.03(1)
- Ratio Treated, peptide TKQDEVNAAWQR (Alpha-II spectrin, z 2, m/z 813.4, LD from WAT of treated mice): 0.84(1)
- Ratio Treated, peptide EANELQQWITEK (Alpha-II spectrin, z 2, m/z 832.4, LD from WAT of treated mice): 1.1(3)
- Ratio Treated, peptide MQHNLEQQIQAR (Alpha-II spectrin, z 2, m/z 835.9, LD from WAT of treated mice): 0.94(3)
- Ratio Treated, peptide HQAFEAELSANQSR (Alpha-II spectrin, z 2, m/z 881.9, LD from WAT of treated mice): 1.24(2)
- Ratio Treated, peptide LIQEQHPEEELIK (Alpha-II spectrin, z 2, m/z 891.5, LD from WAT of treated mice): 1.09(4)
- Ratio Treated, peptide HQAFEAELHANADR (Alpha-II spectrin, z 2, m/z 892.5, LD from WAT of treated mice): 0.84(3)
- Ratio Treated, peptide HQLLEADISAHEDR (Alpha-II spectrin, z 2, m/z 908.1, LD from WAT of treated mice): 1.04(2)
- Ratio Treated, peptide GNAMVEEGHFAAEDVK (Alpha-II spectrin, z 2, m/z 940, LD from WAT of treated mice): 1.1(2)
- Ratio Treated, peptide AQLADSFHLQQFFR (Alpha-II spectrin, z 2, m/z 945, LD from WAT of treated mice): 1.04(1)
- Ratio Treated, peptide LSDDNTIGQEEIQQR (Alpha-II spectrin, z 2, m/z 961.3, LD from WAT of treated mice): 1.25(1)
- Ratio Treated, peptide DLAALGDKVNSLGETAQR (Alpha-II spectrin, z 2, m/z 1020, LD from WAT of treated mice): 1.29(1)
- Ratio Treated, peptide SSLSSAQADFNQLAELDR (Alpha-II spectrin, z 2, m/z 1064, LD from WAT of treated mice): 0.99(3)
- Ratio Treated, peptide SADESGQALLAASHYASDEVR (Alpha-II spectrin, z 2, m/z 1177, LD from WAT of treated mice): 1.14(3)
- Ratio Treated, peptide NQALNTDNYGHDLASVQALQR (Alpha-II spectrin, z 2, m/z 1253, LD from WAT of treated mice): 0.91(3)
- Ratio Treated, peptide HQAFEAELHANADR (Alpha-II spectrin, z 3, m/z 597.6, LD from WAT of treated mice): 0.81(1)
- Ratio Treated, peptide SADESGQALLAASHYASDEVR (Alpha-II spectrin, z 3, m/z 785, LD from WAT of treated mice): 1.1(3)
- Mean isotope ratio Treated, peptide THVDSLR (Apolipoprotein A-I, BIAP-treated/untreated, LD from WAT, 1 mg/kg i.p., 15 min): −1.12
- Ratio Treated, peptide (K)VQPYLDEFQK(K) (Apolipoprotein A-I, z 2, m/z 721.2, LD from WAT of treated mice): 0.97(2)
- Ratio Treated, peptide (R)TQLAPHSEQMR(E) (Apolipoprotein A-I, z 2, m/z 736.9, LD from WAT of treated mice): 0.99(1)
- Ratio Treated, peptide (K)SNPTLNEYHTR(A) (Apolipoprotein A-I, z 2, m/z 753.9, LD from WAT of treated mice): 1(4)
- share of HSL peptide SVSEAALAQPEGLLGTDTLKK phosphorylated (LD of stimulated adipocytes): ~80%
- Mean isotope ratio Treated, peptide SVSEAALAQPEGLLGTDTLK (Lipase, hormone sensitive, LD from WAT, 1 mg/kg i.p., 15 min): 5.1
- Ratio Treated, peptide (R)LILTPPAAPLN(—) (Lipase, hormone sensitive, z 2, m/z 647.8, LD from WAT of treated mice): 0.78(1)
- Ratio Treated, peptide (R)AAFPEGFHPR(R) (Lipase, hormone sensitive, z 2, m/z 652.3, LD from WAT of treated mice): 1.14(2)
- Ratio Treated, peptide (R)QATEFCVQR(I) (Lipase, hormone sensitive, z 2, m/z 657.2, LD from WAT of treated mice): 1.01(3)
- Ratio Treated, peptide (K)HCDLLGSTGER(I) (Lipase, hormone sensitive, z 2, m/z 710.3, LD from WAT of treated mice): 1(4)
- Ratio Treated, peptide (K)CVSAYSGTEAEDHFDSDQK(A) (Lipase, hormone sensitive, z 2, m/z 1164, LD from WAT of treated mice): 1.08(1)
- Ratio Treated, peptide (K)CVSAYSGTEAEDHFDSDQK(A) (Lipase, hormone sensitive, z 3, m/z 774.6, LD from WAT of treated mice): 0.92(1)
- Mean isotope ratio Treated, peptide FVEGLPINDFSR(E) (Malate dehydrogenase, cytoplasmic, LD from WAT, 1 mg/kg i.p., 15 min): 3.08
- Ratio Treated, peptide (K)GEFITTVQQR(G) (Malate dehydrogenase, cytoplasmic, z 2, m/z 677.3, LD from WAT of treated mice): 1.18(2)
- Mean isotope ratio Treated, peptide GLSAPSCPNGLDDK (Perilipin, LD from WAT, 1 mg/kg i.p., 15 min): 1.4
- Mean isotope ratio Treated, peptide LSLMEPESEFRDIDNPSAEAER (Perilipin, LD from WAT, 1 mg/kg i.p., 15 min, 1 mg/kg): 1.6 and 1.63
- Ratio Treated, peptide GLDHLEEK (Perilipin, z 2, m/z 558.3, LD from WAT of treated mice): 1.05(4)
- Ratio Treated, peptide EVTALPNPR (Perilipin, z 2, m/z 587.2, LD from WAT of treated mice): 1.1(4)
- Ratio Treated, peptide ETAEYAANTR (Perilipin, z 2, m/z 650.7, LD from WAT of treated mice): 0.71(1)
- Ratio Treated, peptide IPALQYPPEK (Perilipin, z 2, m/z 665.5, LD from WAT of treated mice): 1.01(4)
- Ratio Treated, peptide EAHPLVASVCNAYEK (Perilipin, z 2, m/z 932, LD from WAT of treated mice): 1.06(4)
- Ratio Treated, peptide VLQLPWSGTCECFQK (Perilipin, z 2, m/z 1020, LD from WAT of treated mice): 0.98(4)
- Ratio Treated, peptide GVQGASNLAAWSMEPVVR (Perilipin, z 2, m/z 1024, LD from WAT of treated mice): 1(2)
- Ratio Treated, peptide GVTDNVVDTVVHYVPLPR (Perilipin, z 2, m/z 1078, LD from WAT of treated mice): 0.93(3)
- Ratio Treated, peptide GPTLLDGDLPEQENVLQR (Perilipin, z 2, m/z 1085, LD from WAT of treated mice): 1.05(4)
- Ratio Treated, peptide VLQLPWSGTCECFQK (Perilipin, z 3, m/z 680.8, LD from WAT of treated mice): 1.17(2)
- Ratio Treated, peptide GVQGASNLAAWSMEPVVR (Perilipin, z 3, m/z 683, LD from WAT of treated mice): 1(2)
- Ratio Treated, peptide VVEFLLPPDKESAPSSGR (Perilipin, z 3, m/z 701.8, LD from WAT of treated mice): 1.11(4)
- Ratio Treated, peptide GVTDNVVDTVVHYVPLPR (Perilipin, z 3, m/z 719.3, LD from WAT of treated mice): 1(3)
- Ratio Treated, peptide GPTLLDGDLPEQENVLQR (Perilipin, z 3, m/z 723.9, LD from WAT of treated mice): 1.01(4)
- Mean isotope ratio Treated, peptide SHDTTSNTLTQLLAK (Protein kinase C delta binding protein, LD from WAT, 1 mg/kg i.p., 15 min): 1.11
- Ratio Treated, peptide (R)LEANHGLLVAR(G) (Protein kinase C delta binding protein, z 2, m/z 684.4, LD from WAT of treated mice): 0.94(2)
- Ratio Treated, peptide (K)EDPEKPVLQIESAA(—) (Protein kinase C delta binding protein, z 2, m/z 854.9, LD from WAT of treated mice): 0.74(1)
